Laboratory results as given in US11179410B2, “Pharmaceutical composition for improving, preventing or treating muscle related disease comprising ginsenoside Rh2” (KOREA ADVANCED INSTITUTE OF SCIENCE AND TECHNOLOGY, priority 2018, dated 2021).

What was measured:
Format in all cases: cell-based, mouse
[1] = system: MSTN-induced atrophic myotube cells (C2C12); experiment: Myotube width in MSTN-induced atrophic myotubes treated with Rh2
Procedure: (§1) C2C12 myotube cells were fixed with 4% (w/v) paraformaldehyde (Biosesang) for 15 minutes and then treated with 0.2% (v/v) Triton X-100, and blocked with 5% (w/v) BSA for 6 h. The cells were then stained with Myosin Heavy Chain (MHC) antibody (Santa Cruz, sc-20641, 1: 1000) for 12 h at 4° C. and then incubated with Alexa Fluor 488 conjugated secondary antibody at room temperature for 4 h. Images were acquired via HCS equipment (Molecular Devices) and quantified using ImageJ software. The width of myotube cells was quantified by measuring a total of more than 100 myotube cell widths in randomly selected five regions. The width per myotube was determined as the average of three independent measurements.
To investigate the effect of Rh2 on MSTN-induced atrophy, myotubes were treated with 0.4 ug/ml MSTN alone for 24 hours or treated with combination of 0.4 ug/ml MSTN and 1 ug/ml or 10 ug/ml Rh2 (Sigma, 73658) for 24 hours. In order to measure the change of the myotube width, the myotube cells were stained with MHC antibody as in the above Experimental Example 1, and cell images were obtained using HCS, and the width of myotube was quantified using ImageJ.

pSmad2/Smad2 = experiment: Western blotting of pSmad2 in MSTN-induced atrophic myotube cells
Procedure: (§2) MSTN is known to induce atrophy by increasing UPP-mediated protein degradation through activation of the ActRIIB-Smad2 signaling pathway. Phosphorylated Smad2 (pSmad2) activates this UPP-mediated proteolytic signaling. Activated UPP is involved in the degradation of MyoD and is regulated by the E3 ligase, MAFbx. To investigate the mechanism of Rh2 in this signal transduction, changes of the amount of Rh2-induced phosphorylation of Smad2 and the amount of MAFbx and MyoD expression were determined. For this purpose, myotube cells were treated with 0.4 μg/ml MSTN alone, or with combination of 0.4 μg/ml MSTN and 1 μg/ml or 10 μg/ml Rh2. Western blotting was performed using pSmad2 antibody, MAFbx antibody, and MyoD antibody respectively.
(§3) The bands of Western blot and the relative fold change values of pSmad2/Smad2, MAFbx/GAPDH and MyoD/GAPDH in each treatment conditions were shown in FIG. 4.

MAFbx = experiment: Western blotting of MAFbx in MSTN-induced atrophic myotube cells
Procedure: as §2, §3

MyoD = experiment: Western blotting of MyoD in MSTN-induced atrophic myotube cells
Procedure: as §2, §3

C2C12 myotube cells = experiment: Induction of muscular atrophy cell model: myotube width after MSTN treatment; details: 24 hours, C2C12 myotubes
Procedure: The model of muscular atrophy was constructed by differentiating mouse myoblast cell lines (C2C12 ATCC CRL-1772) into myotube cells followed by treating with MSTN.
Specifically, the cell lines were cultured in DMEM (Gibco) supplemented with 10% (v/v) Fetal Bovine Serum (FBS), 100 U/ml penicillin and 100 U/ml streptomycin (Sigma) at 37° C. in 5% CO2. For differentiating the cell lines into myotube cells, the cells were grown to 80-90% confluence and then cultured in DMEM supplemented with 2% (v/v) horse serum (Horse Serum, HS, Gibco). To verify the differentiation into myotube cells, the merge of multiple myoblasts to one long myotube cells were observed by the microscopic images.
In order to induce an atrophy model, differentiated myotube cells were cultured in serum-free DMEM medium for 3 hours, and then MSTN was treated with 0.4 μg/ml, […], 0.8 μg/ml and 1.2 μg respectively for 24 hours. […]
as §1, with “The cells were then stained with Myosin Heavy Chain (MHC) antibody (Santa Cruz, sc-20641, 1: 1000) for 12 h at 4° C. and then incubated with Alexa Fluor 488 conjugated secondary antibody at room temperature for 4 h.” left out

| Molecule | width of myotube as % of that of normal cells ([1]; 0.4 ug/ml MSTN + 1 ug/ml Rh2, 24 hours) | width of myotube as % of that of normal cells ([1]; 0.4 ug/ml MSTN + 10 ug/ml Rh2, 24 hours) | amount of pSmad2 (pSmad2/Smad2) relative to normal conditions (pSmad2/Smad2; 0.4 μg/ml MSTN + 10 ug/ml Rh2) | amount of MAFbx (MAFbx/GAPDH) relative to normal conditions (MAFbx; 0.4 μg/ml MSTN + 10 ug/ml Rh2) | amount of MyoD (MyoD/GAPDH) relative to normal conditions (MyoD; 0.4 μg/ml MSTN + 10 ug/ml Rh2) | decrease of width of myotube compared to the normal (C2C12 myotube cells; 0.4 ug/ml MSTN, control width = 1.0) | decrease of width of myotube compared to the normal (C2C12 myotube cells; as the concentration of MSTN increased (up to 1.2 μg)) | reduction of width of myotube compared to normal cells ([1]; 0.4 ug/ml MSTN alone, 24 hours) | amount of pSmad2 (pSmad2/Smad2), increase compared with normal condition (pSmad2/Smad2; 0.4 μg/ml MSTN alone) | amount of MAFbx (MAFbx/GAPDH), increase compared with normal condition (MAFbx; 0.4 μg/ml MSTN alone) | amount of MyoD (MyoD/GAPDH), % of the normal condition (MyoD; 0.4 μg/ml MSTN alone) |
| --- | --- | --- | --- | --- | --- | --- | --- | --- | --- | --- | --- |
| CC(C)=CCC[C@](C)(O)[C@H]1CC[C@]2(C)[C@@H]1[C@H](O)C[C@@H]1[C@@]3(C)CC[C@H](O[C@@H]4O[C@H](CO)[C@@H](O)[C@H](O)[C@H]4O)C(C)(C)[C@@H]3CC[C@]12C [Rh2, ginsenoside Rh2] | about 70% | above 100% | kept at the same level as normal conditions | kept at the same level as normal conditions | kept at the same level as normal conditions |  |  |  |  |  |  |
| Myostatin [MSTN] |  |  |  |  |  | about 45% | about 60% | about 50% | about 50% | about 50% | about 30% |
